Assay results: PMC3250956, “Functional characterization and analgesic effects of mixed cannabinoid receptor/T-type channel ligands” (Molecular Pain, 2011)
Read-outs that look alike come from different tables or passages of the source.

Columns and labels:
[1] = tested on: formalin-induced pain; test: Formalin test (formalin-induced nociception); format: in vivo, mice
Protocol: All experiments were conducted following the protocol approved by the Institutional Animal Care and Use Committee (protocol #M09130) and all efforts were made to minimize animal suffering. Male mice of C57BL/6J strain weighing 25~30 g, 10 weeks old were used. Animals were housed at a maximum number of five per cage (30 × 20 × 15 cm) with food and water ad libitum. They were kept in 12 h light/dark cycles (lights on at 7:00 a.m.) at a temperature of 23 ± 1°C. All manipulations were carried out between 11:00 am and 3:00 pm. […] Control animals received the same vehicle used to dilute the compounds. When drugs were delivered by intraperitoneal (i.p.) route, a constant volume of 10 ml/kg body weight was injected. When drugs were administered by intrathecal (i.t.) or intraplantar (i.pl.) routes, respectively volumes of 5 μl or 20 μl were injected. Appropriate vehicle-treated groups were also assessed simultaneously.
The formalin test is a widely used model that allows us to evaluate two different types of pain: neurogenic pain (phase 1) is caused by direct activation of nociceptive nerve terminals, while inflammatory pain (phase 2) is mediated by a combination of peripheral input and spinal cord sensitization. Animals received 20 μl of a formalin solution (1.25%) made up in PBS injected intraplantarly (i.pl.) in the ventral surface of the right hindpaw. Following i.pl. injection of formalin, the animals were immediately placed individually into observation chambers and the time spent licking or biting the injected paw was be recorded and considered as nociceptive response. We observed animals individually from 0-5 min (neurogenic phase) and 15-30 min (inflammatory phase).
Intrathecal injections were given to fully conscious mice using the method previously described by Hylden and Wilcox. Briefly, the animals were manually restrained, and a 30-gauge needle connected by a polyethylene tube to a 25 μl Hamilton syringe (Hamilton, Birmingham, UK) was inserted through the skin and between the vertebrae into the […] space of the L5-L6 spinal segments. Intrathecal injections were given over a period of 5 seconds.

[2] = target: T1, Cav3.2 (Homo sapiens, UniProt O95180); test: Whole-cell patch-clamp on Cav3.2: concentration-response and steady-state inactivation; format: cell-based; settings: 10 μM
T1 construct: expressed in transfected cells; host or cells: tsA-201 cells, transient calcium phosphate transfection
Protocol: To further characterize compounds NMP-4, NMP-7 and NMP-144, we investigated the concentration dependence of their action on Cav3.2, the major T-type calcium channel subtype implicated in the afferent pain pathway (Figure 2B, C).
To determine whether these compounds also affected inactivated channels, we recorded steady-state inactivation curves prior and after application of NMP-4, NMP-7 or NMP-144.
Whole-cell currents were recorded from tsa-201 cells 2-4 days after transfection. The external recording solution contained (in mM): BaCl2 (20), MgCl2 (1), HEPES (10), TEA-Cl (40), CsCl (65), d-glucose (10) and pH 7.2 adjusted with TEA-OH. The internal pipette solution was composed of (in mM) Cs-methanesulfonate (108), MgCl2 (4), EGTA (9), HEPES (9) and pH 7.2 adjusted with CsOH. The internal solution was supplemented with 0.6 mM GTP (sodium salt) and 2 mM ATP (tris salt), which were added directly to the internal solution immediately prior to use. Pipettes with a resistance of 2~5 MΩ when filled with internal solution were used for recording. Currents were elicited from a holding potential of -100 mV and were measured by conventional whole-cell patch clamp using an Axopatch 200B amplifier in combination with Clampex 9.2 software (Axon Instruments, Foster City, CA). Data were filtered at 1 kHz (8-pole Bessel) and digitized at 10 kHz with a Digidata 1320 (Axon Instruments, Foster City, CA). Series resistance were compensated by 85% in all experiments. An online P/4 programme was used to subtract the leak currents. Drugs were dissolved in DMSO at the following stock concentrations: 20 mM for NMP-4 and NMP-7, and 10 mM for NMP-139, NMP-140, NMP-141 and NMP-144. Prior to the experiment, drugs were diluted into external recording solution with a final DMSO concentration no higher than 0.3%. DMSO was also included in the control solution. Drug delivery was controlled by a Valvelink8.2 fast perfusion system (Automate Scientific Inc., Berkeley, CA). The perfusion tip was positioned a few hundred microns from the cell and kept as constant as possible throughout the experiments. Electrophysiological data were analyzed using Clampfit 9.2 (Axon Instruments, Foster City, CA) and GraphPad Prism 5 software (GraphPad Software Inc., San Diego, CA). […] Steady-state inactivation curves were fitted using the Boltzmann equation: I = 1/(1 + e ^(V-Vh)/k), where Vh is the half inactivating potential and k is the slope factor.

[3] = tested on: locomotor activity; test: Open-field test; format: in vivo, mice; settings: 1 mg/kg i.p., 30 minutes before the experiment; data not shown
Excerpt: We then delivered NMP-7 via the intrperitoneal route.

[4] = target: Human CB1 (Homo sapiens, UniProt P21554); test: GTPγ[35S] functional assay, CHO cell membrane extracts; parameters: Emax: dose or concentration left out as unconfirmed
[5] = target: T2, Human CB2 (Homo sapiens, UniProt P34972); test: as above; format: biochemical; parameters: expressed in transfected cells; host or cells: CHO cells (membrane extracts); settings: for Emax: read-out: GTPγ[35S] functional assays Human CB2 Emax
[6] = target: T3, human 5-HT2A (Homo sapiens, UniProt P28223); test: Primary radioligand competitive binding assay, [3H]ketanserin; settings: ligand 10 μM, HEK293 cells
T3 construct: expressed in transfected cells; host or cells: HEK293 (Flp-In system, pcDNA5.0FRT)
Protocol: (§1) HEK293 cells and CHO cells were used in the radioligand binding assay while tsA-201 cells were used in the electrophysiological study. Human CB2, human 5-HT2A, rat 5-HT2C used in the binding studies were cloned into pcDNA5.0FRT and cell lines were made using the FlpIn system from Invitrogen. tsA-201 cell culture and transient calcium channel transfection were performed as described previously. In brief, tsA-201 cells were transfected using the calcium phosphate method. Cav3.1, 3.2 and 3.3 α1 subunits were transfected individually with yellow fluorescent protein as a transfection marker.
(§2) Radioligand binding data were obtained using National Institute of Mental Health's Psychoactive Drug Screening Program (NIMH/PDSP) using the same protocol described for CB1 and CB2 binding experiments. Transfected HEK293 (human 5-HT2A or rat 5-HT2C) cells were used. The radioligands were [^3H]ketanserin (0.5 nM) and [^3H]mesulergine (0.5 nM) for respectively 5-HT2A and 5-HT2C experiments. Non-specific binding was determined in the presence of 10 μM chlorpromazine for both 5-HT2A and 5-HT2C binding experiments. Cells were harvested and homogenized in 50 mM Tris HCl, 10 mM MgCl2, 0.1 mM EDTA, pH 7.4. Incubation of radioreceptor binding assay mixtures was 1.5 hours at room temperature in the dark.

[7] = target: T4, rat 5-HT2C (Rattus norvegicus, UniProt P08909); test: Primary radioligand competitive binding assay, [3H]mesulergine; settings: ligand 10 μM, HEK293 cells
T4 construct: expressed in transfected cells; host or cells: HEK293 (Flp-In system, pcDNA5.0FRT)
T4 sequence (P08909 33-460): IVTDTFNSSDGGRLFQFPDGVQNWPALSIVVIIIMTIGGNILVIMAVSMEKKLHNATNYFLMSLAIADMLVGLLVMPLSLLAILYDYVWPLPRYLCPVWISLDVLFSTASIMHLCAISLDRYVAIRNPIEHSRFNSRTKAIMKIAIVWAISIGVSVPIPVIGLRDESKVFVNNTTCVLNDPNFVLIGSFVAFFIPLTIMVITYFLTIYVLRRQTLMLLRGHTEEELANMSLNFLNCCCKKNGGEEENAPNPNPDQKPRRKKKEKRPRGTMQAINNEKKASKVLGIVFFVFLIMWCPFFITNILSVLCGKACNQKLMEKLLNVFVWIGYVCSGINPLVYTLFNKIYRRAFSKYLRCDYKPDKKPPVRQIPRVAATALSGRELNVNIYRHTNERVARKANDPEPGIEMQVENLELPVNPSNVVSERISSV
Protocol: as §1, §2

[8] = target: T2, Human CB2; test: Radioligand competitive binding, [3H]CP55940, HEK293 cells; parameters: expressed in transfected cells; settings: for Ki: NA: not active at 1 μM, read-out: Mean Ki Human CB2; for Human CB2 (%) primary radioligand competitive binding: ligand 10 μM, HEK293 cells
Protocol: as §1
(§3) CB1 and CB2 radioligand binding data were obtained using National Institute of Mental Health (NIMH) Psychoactive Drug Screening Program (PDSP) resources as described earlier. Compounds were screened in a competitive binding experiment using, respectively, membrane fractions prepared from rat brain homogenate expressing CB1 receptor and HEK293 cells expressing the human CB2 receptor. Experiments were conducted at a range of different concentrations and in duplicate. The competition binding experiment for CB1 and CB2 was performed in 96 well plates containing Standard Binding Buffer (50 mM Tris HCl, 1 mM EDTA, 3 mM MgCl2, 5 mg/ml fatty acid-free BSA, pH 7.4). The radioligand was [^3H]CP55940, and the reference compound was CP55940. A solution of the compound to be tested was prepared as a 1 mg/ml stock in DMSO and then diluted in Standard Binding Buffer by serial dilution. Radioligand was diluted to five times the assay concentration in Standard Binding Buffer. Aliquots (50 μl) of radioligand were dispensed into the wells of a 96-well plate containing 100 μl of Standard Binding Buffer. Then, duplicate 50-μl aliquots of the test and reference compound dilutions were added. Finally, crude membrane fractions of cells were resuspended in 3 ml of chilled Standard Binding Buffer and homogenized by several passages through a 26 gauge needle, then 50 μl were dispensed into each well. The 250-μl reactions were incubated at room temperature for 1.5 hours, and then harvested by rapid filtration onto Whatman GF/B glass fiber filters pre-soaked with 0.3% polyethyleneimine using a 96-well Brandel harverster. Four rapid 500-μl washes were performed. Filters were placed in 6-ml scintillation tubes and allowed to dry overnight. Bound radioactivity was harvested onto 0.3% polyethyleneimine-treated, 96-well filter mats using a 96-well Filtermate harvester. The filter mats were dried, then scintillant was melted onto the filters and the radioactivity retained on the filters counted in a Microbeta scintillation counter. Raw data (dpm) representing total radioligand binding (i.e., specific + non-specific binding) were plotted as a function of the logarithm of the molar concentration of the competitor (i.e., test or reference compound). Non-linear regression of the normalized (i.e., percent radioligand binding compared to that observed in the absence of test or reference compound) raw data was performed in Prism 4.0 (GraphPad Software) using the built-in three parameter logistic model describing ligand competition binding to radioligand-labeled sites: y = bottom + [(top-bottom)/(1 + 10 × -logIC50)] where bottom equals the residual radioligand binding measured in the presence of 10 μM reference compound (i.e., non-specific binding) and top equals the total radioligand binding observed in the absence of competitor. The log IC50 (i.e., the log of the ligand concentration that reduces radioligand binding by 50%) is thus estimated from the data and used to obtain the Ki by applying the Cheng-Prusoff approximation: Ki = IC50/(1 + [ligand]/KD) where [ligand] equals the assay radioligand concentration and KD equals the affinity constant of the radioligand for the target receptor.

[9] = target: T5, Rat CB1 (Rattus norvegicus, UniProt P20272); test: Radioligand competitive binding, [3H]CP55940, rat brain homogenate; settings: for Ki: NA: not active at 1 μM, read-out: Mean Ki Rat CB1; for Rat CB1 (%) primary radioligand competitive binding: ligand 10 μM, rat brain homogenates
T5 construct: membrane fractions prepared from rat brain homogenate expressing CB1 receptor; from tissue; host or cells: rat brain homogenate
Protocol: as §3

[10] = tested on: T-type calcium channels (Cav3.1, Cav3.2, Cav3.3); test: Whole-cell patch-clamp screen on recombinant T-type calcium channels in tsA-201 cells; format: cell-based, human; settings: 10 μM; held at -100 mV, pulse to -20 mV; barium current; three Cav3 isoforms
Excerpt: Studies have shown that several endocannabinoids and phytocannabinoids have direct inhibitory actions on T-type voltage-gated calcium channels. To determine whether the NMP compounds produced a similar effect, we characterized their actions on transiently expressed T-type calcium channels via whole-cell patch-clamp recordings. Cells were held at -100 mV and barium current was evoked by a depolarizing pulse to -20 mV.
as §1, with “Cav3.1, 3.2 and 3.3 α1 subunits were transfected individually with yellow fluorescent protein as a transfection marker.” left out
Whole-cell currents were recorded from tsa-201 cells 2-4 days after transfection. […] Currents were elicited from a holding potential of -100 mV and were measured by conventional whole-cell patch clamp using an Axopatch 200B amplifier in combination with Clampex 9.2 software (Axon Instruments, Foster City, CA). […] Electrophysiological data were analyzed using Clampfit 9.2 (Axon Instruments, Foster City, CA) and GraphPad Prism 5 software (GraphPad Software Inc., San Diego, CA). […]

[11] = 1 mg/kg i.p., 30 min before behavioural assessment
[12] = i.t., 10 min prior, NMP-4 1-10 μg/i.t., NMP-144 0.1-1 μg/i.t., NMP-7 3-30 μg/i.t., mice

T2 sequence (P34972 whole entry): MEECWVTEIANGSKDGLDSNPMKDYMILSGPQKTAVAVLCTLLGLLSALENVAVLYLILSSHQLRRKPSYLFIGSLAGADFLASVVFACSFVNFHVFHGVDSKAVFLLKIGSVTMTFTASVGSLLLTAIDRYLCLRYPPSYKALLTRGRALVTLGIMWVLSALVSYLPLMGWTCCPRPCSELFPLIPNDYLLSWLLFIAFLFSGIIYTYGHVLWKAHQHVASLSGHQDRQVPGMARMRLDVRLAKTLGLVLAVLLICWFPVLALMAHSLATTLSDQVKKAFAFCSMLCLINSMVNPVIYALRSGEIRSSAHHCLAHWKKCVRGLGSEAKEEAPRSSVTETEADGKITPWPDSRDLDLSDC
Sequence of Human CB1 (P21554 whole entry): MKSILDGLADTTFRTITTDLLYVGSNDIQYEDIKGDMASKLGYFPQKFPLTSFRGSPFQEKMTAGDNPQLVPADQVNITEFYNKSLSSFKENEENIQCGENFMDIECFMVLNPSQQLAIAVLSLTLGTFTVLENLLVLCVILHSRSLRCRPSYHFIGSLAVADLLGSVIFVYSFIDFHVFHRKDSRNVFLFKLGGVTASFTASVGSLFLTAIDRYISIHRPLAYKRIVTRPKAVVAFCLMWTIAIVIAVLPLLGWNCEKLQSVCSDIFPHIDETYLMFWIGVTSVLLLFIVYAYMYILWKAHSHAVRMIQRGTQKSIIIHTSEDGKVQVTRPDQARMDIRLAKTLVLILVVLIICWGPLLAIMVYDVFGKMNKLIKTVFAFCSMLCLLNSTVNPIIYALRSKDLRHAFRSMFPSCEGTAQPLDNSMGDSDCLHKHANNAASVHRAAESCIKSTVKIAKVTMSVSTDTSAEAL
T5 sequence (P20272 whole entry): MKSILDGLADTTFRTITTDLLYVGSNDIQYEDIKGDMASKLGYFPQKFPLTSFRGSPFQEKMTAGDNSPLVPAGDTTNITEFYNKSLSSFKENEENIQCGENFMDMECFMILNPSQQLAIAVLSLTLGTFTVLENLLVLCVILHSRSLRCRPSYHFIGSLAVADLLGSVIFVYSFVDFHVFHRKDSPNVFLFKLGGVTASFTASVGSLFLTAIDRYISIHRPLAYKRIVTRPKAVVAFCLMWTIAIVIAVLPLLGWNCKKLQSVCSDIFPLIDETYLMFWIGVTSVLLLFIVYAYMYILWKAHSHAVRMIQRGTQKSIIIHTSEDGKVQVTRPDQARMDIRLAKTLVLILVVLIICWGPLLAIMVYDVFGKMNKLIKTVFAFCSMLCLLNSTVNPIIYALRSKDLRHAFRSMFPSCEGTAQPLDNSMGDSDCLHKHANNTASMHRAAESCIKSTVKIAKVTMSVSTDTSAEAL
T3 sequence (P28223 whole entry): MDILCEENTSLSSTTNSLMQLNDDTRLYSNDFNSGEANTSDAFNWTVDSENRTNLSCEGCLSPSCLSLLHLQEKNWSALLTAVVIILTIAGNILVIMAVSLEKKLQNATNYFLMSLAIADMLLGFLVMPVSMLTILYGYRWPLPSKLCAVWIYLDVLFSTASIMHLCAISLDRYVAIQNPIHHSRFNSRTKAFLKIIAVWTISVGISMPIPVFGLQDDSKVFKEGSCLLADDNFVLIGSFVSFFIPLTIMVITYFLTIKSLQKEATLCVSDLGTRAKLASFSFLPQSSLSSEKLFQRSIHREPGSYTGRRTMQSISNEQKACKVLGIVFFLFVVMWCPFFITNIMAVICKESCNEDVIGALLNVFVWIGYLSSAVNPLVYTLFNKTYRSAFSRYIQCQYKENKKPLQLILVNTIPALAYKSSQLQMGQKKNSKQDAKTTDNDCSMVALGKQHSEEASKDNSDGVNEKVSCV
T1 sequence (O95180 whole entry): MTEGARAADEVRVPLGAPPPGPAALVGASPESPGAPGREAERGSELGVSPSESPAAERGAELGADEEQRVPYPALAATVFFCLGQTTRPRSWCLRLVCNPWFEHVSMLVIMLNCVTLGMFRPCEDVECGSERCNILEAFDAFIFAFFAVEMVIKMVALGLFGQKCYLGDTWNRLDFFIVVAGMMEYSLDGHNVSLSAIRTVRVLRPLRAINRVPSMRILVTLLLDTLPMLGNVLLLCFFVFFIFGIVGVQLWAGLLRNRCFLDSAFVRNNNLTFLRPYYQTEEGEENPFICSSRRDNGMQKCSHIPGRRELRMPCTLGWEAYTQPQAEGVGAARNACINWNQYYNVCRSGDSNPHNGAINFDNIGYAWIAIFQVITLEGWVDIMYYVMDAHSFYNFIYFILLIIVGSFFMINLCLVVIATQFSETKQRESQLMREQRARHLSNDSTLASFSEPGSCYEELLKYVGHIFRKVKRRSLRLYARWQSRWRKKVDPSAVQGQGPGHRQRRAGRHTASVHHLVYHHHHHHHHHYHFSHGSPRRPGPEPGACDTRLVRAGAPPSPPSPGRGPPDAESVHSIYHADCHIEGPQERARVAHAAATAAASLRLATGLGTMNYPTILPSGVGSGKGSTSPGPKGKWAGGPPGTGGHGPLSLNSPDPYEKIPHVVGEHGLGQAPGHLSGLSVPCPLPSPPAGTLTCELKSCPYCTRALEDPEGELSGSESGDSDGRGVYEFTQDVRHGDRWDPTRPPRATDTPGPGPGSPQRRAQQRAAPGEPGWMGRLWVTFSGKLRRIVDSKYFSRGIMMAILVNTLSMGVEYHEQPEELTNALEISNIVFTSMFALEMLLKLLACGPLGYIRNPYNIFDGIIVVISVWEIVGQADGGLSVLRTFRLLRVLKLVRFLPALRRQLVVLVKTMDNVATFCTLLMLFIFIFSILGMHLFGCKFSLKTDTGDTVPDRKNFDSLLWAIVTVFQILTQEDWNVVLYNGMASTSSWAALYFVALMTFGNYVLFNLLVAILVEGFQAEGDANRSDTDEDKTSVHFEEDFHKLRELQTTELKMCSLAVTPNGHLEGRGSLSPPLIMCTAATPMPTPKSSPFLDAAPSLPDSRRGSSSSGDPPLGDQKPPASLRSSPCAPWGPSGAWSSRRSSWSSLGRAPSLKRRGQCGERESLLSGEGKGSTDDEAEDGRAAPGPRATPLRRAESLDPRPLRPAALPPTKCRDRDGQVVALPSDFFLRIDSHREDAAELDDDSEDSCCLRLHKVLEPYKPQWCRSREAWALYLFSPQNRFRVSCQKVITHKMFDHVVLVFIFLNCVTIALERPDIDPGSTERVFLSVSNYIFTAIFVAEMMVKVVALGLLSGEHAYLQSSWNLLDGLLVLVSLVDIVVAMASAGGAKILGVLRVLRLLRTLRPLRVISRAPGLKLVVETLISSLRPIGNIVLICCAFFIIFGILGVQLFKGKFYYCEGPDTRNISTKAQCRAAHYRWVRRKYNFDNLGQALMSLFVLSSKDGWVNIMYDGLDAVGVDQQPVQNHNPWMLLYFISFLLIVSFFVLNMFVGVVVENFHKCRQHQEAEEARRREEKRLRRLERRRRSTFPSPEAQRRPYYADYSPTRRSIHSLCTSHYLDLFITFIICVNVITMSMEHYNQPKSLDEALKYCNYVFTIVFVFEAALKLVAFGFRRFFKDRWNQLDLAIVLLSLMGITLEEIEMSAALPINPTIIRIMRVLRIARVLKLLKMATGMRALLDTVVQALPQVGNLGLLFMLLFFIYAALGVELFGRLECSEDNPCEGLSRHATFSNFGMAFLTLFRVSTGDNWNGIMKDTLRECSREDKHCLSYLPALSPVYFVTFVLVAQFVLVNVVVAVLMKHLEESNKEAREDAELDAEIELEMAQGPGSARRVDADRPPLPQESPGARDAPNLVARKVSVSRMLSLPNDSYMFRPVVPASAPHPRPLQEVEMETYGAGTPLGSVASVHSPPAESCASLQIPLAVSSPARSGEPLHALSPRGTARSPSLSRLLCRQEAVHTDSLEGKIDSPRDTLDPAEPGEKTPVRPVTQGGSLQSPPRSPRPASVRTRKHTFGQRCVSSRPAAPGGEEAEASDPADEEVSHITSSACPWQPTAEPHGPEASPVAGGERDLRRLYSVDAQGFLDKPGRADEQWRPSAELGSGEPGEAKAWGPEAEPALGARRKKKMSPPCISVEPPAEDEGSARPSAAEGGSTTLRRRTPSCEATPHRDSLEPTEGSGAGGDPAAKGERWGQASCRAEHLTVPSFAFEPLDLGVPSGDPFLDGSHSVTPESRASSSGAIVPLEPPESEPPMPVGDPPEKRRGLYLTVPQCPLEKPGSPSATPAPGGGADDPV

SMILES | Emax [5] [%] | Human 5-HT2A (%) primary radioligand competitive binding [6] [%] | Rat 5-HT2C (%) primary radioligand competitive binding [7] [%] | Ki [8] [µM] | Human CB2 (%) primary radioligand competitive binding [8] [%] | Ki [9] [µM] | Rat CB1 (%) primary radioligand competitive binding [9] [%] | other results
CCCCCn1c2ccccc2c2cc(C(=O)N3CCCCC3)ccc21 [NMP-7] | 30.8 | – | – | – | – | – | – | inhibition of the pain responses in phase 1 [1, 11]: 92 ± 7%; inhibition of the pain responses in phase 2 [1, 11]: 94 ± 6%; effect on first phase of formalin-induced nociception ([1]; i.pl., co-injected with formalin, NMP-4 and NMP-144 0.03-3 μg/paw, NMP-7 0.3-3 μg/i.pl.): able to inhibit the first phase; reduction of pain response time, first (neurogenic) phase [1, 12]: significant inhibition; reduction of pain response time, second (inflammatory) phase [1, 12]: significant inhibition; hyperpolarizing shift in the half inactivation potential of Cav3.2 channels [2]: 13 mV; half-inactivation potential after treatment with drug ([2]; n = 4): -63.3 ± 3.5 mV; locomotor activity in the open-field test [3]: did not alter locomotor activity; EC50 [4]: 0.0969 ± 0.0119 µM; Emax ([4]; read-out: GTPγ[35S] functional assays Human CB1 Emax): 73.6%; EC50 [5]: 0.0105 ± 0.0018 µM
CCCCCn1c2c(c3ccccc31)C[C@H](C(=O)N1CCCCC1)NC2 [NMP-140] | – | 11.2 | -4.2 | 2.87 ± 0.515 | 71.1 | 1.25 ± 0.29 | 79.3 | –
CCCCCn1c2ccccc2c2cc(C(=O)NCCc3ccc(Cl)cc3)ccc21 [NMP-139] | – | 7.7 | -7.8 | 3.59 ± 0.424 | – | – | 46.3 | inhibition of T-type current [10]: < 20%
CCCCCn1c2c(c3ccccc31)C[C@@H](C(=O)N1CCCCC1)NC2 [NMP-141] | 51.9 | 11.9 | -8.4 | 0.481 ± 0.0529 | 88.7 | 0.906 ± 0.211 | 88.6 | GTPγ[35S] functional assays Human CB1 EC50 ([4]; NA: not active at 1 μM): did not show any agonistic or antagonistic activities; EC50 ([5]; read-out: GTPγ[35S] functional assays Human CB2 EC50): 0.112 ± 0.0033 µM
